According to the supplement of paper PMC10307832:

Assays:
Test in all cases: relative viability (nuclei count vs DMSO), 5 days (fraction); higher = more cells survive
Tipifarnib + Olaparib = compound: Cn1cncc1[C@@](N)(c1ccc(Cl)cc1)c1ccc2c(c1)c(-c1cccc(Cl)c1)cc(=O)n2C [Tipifarnib] + O=C(c1cc(Cc2n[nH]c(=O)c3ccccc23)ccc1F)N1CCN(C(=O)C2CC2)CC1 [Olaparib] (partner 8 µM)
Procedure, shortened: (§1)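 Cells from lung cancer lines were seeded into 1536-well plates and, one day later, dosed by pin tool. Treatments were either a single drug or a fixed dose of an anchor drug with five library-drug doses (not always all listed) in √10 steps. After 5 days, nuclei were stained in a one-step fixation (final 0.05% Triton X-100, 1% formaldehyde, 1 ug/ml Hoechst) and counted on 4× images, and relative viability is the treated-to-vehicle nuclei ratio, as the median of duplicate plates.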

Tipifarnib + AZD7762 = compound: Cn1cncc1[C@@](N)(c1ccc(Cl)cc1)c1ccc2c(c1)c(-c1cccc(Cl)c1)cc(=O)n2C [Tipifarnib] + NC(=O)Nc1cc(-c2cccc(F)c2)sc1C(=O)N[C@H]1CCCNC1 [AZD7762] (partner 0.2 µM)
Procedure, shortened: as §1

Tipifarnib + Lapatinib = compound: Cn1cncc1[C@@](N)(c1ccc(Cl)cc1)c1ccc2c(c1)c(-c1cccc(Cl)c1)cc(=O)n2C [Tipifarnib] + CS(=O)(=O)CCNCc1ccc(-c2ccc3ncnc(Nc4ccc(OCc5cccc(F)c5)c(Cl)c4)c3c2)o1 [Lapatinib] (partner 2 µM)
Procedure, shortened: as §1

Tipifarnib + Decitabine = compound: Cn1cncc1[C@@](N)(c1ccc(Cl)cc1)c1ccc2c(c1)c(-c1cccc(Cl)c1)cc(=O)n2C [Tipifarnib] + Nc1ncn([C@H]2C[C@H](O)[C@@H](CO)O2)c(=O)n1 [Decitabine] (partner 2 µM)
Procedure, shortened: as §1

Cell Line | relative viability (Tipifarnib + Olaparib; first compound 0.01 µM) | relative viability (Tipifarnib + Olaparib; first compound 0.03162 µM) | relative viability (Tipifarnib + Olaparib; first compound 0.1 µM) | relative viability (Tipifarnib + Olaparib; first compound 0.3162 µM) | relative viability (Tipifarnib + Olaparib; first compound 1 µM) | relative viability (Tipifarnib + AZD7762; first compound 0.01 µM) | relative viability (Tipifarnib + AZD7762; first compound 0.03162 µM) | relative viability (Tipifarnib + AZD7762; first compound 0.1 µM) | relative viability (Tipifarnib + AZD7762; first compound 0.3162 µM) | relative viability (Tipifarnib + AZD7762; first compound 1 µM) | relative viability (Tipifarnib + Lapatinib; first compound 0.01 µM) | relative viability (Tipifarnib + Lapatinib; first compound 0.03162 µM) | relative viability (Tipifarnib + Lapatinib; first compound 0.1 µM) | relative viability (Tipifarnib + Lapatinib; first compound 0.3162 µM) | relative viability (Tipifarnib + Lapatinib; first compound 1 µM) | relative viability (Tipifarnib + Decitabine; first compound 0.01 µM) | relative viability (Tipifarnib + Decitabine; first compound 0.03162 µM) | relative viability (Tipifarnib + Decitabine; first compound 0.1 µM) | relative viability (Tipifarnib + Decitabine; first compound 0.3162 µM) | relative viability (Tipifarnib + Decitabine; first compound 1 µM)
HCC-366 | 0.302 | 0.327 | 0.164 | 0.199 | 0.106 | 0.281 | 0.304 | 0.171 | 0.0878 | 0.0371 | 0.981 | 0.822 | 0.345 | 0.235 | 0.039 | 0.345 | 0.337 | 0.19 | 0.174 | 0.16
HCC-827 | 0.68 | 0.693 | 0.545 | 0.443 | 0.478 | 0.236 | 0.287 | 0.206 | 0.207 | 0.178 | 0.184 | 0.208 | 0.152 | 0.186 | 0.172 | 0.324 | 0.333 | 0.293 | 0.293 | 0.259
HOP-62 | 0.337 | 0.395 | 0.205 | 0.193 | 0.2 | 0.573 | 0.169 | 0.196 | 0.152 | 0.261 | 0.841 | 0.301 | 0.454 | 0.244 | 0.265 | 0.204 | 0.225 | 0.196 | 0.254 | 0.191
IA-LM | 0.494 | 0.504 | 0.485 | 0.256 | 0.404 |  |  |  |  |  | 0.295 | 0.192 | 0.215 | 0.144 | 0.156 |  |  |  |  | 
LCLC-103H | 0.81 | 0.759 | 0.785 | 0.708 | 0.739 | 0.784 | 0.76 | 0.735 | 0.713 | 0.679 |  |  |  |  |  | 0.757 | 0.672 | 0.785 | 0.635 | 0.673
NCI-H441 | 0.651 | 0.39 | 0.523 | 0.306 | 0.277 | 1.21 | 0.904 | 0.938 | 0.723 | 0.598 |  |  |  |  |  | 0.217 | 0.241 | 0.237 | 0.204 | 0.183
NCI-H520 | 0.351 | 0.348 | 0.318 | 0.293 | 0.273 |  |  |  |  |  | 0.996 | 0.79 | 0.838 | 0.708 | 0.321 | 0.583 | 0.469 | 0.627 | 0.401 | 0.424
NCI-H522 | 0.633 | 0.677 | 0.621 | 0.67 | 0.542 | 0.925 | 1.03 | 0.875 | 0.754 | 0.662 |  |  |  |  |  | 0.657 | 0.725 | 0.582 | 0.586 | 0.592
NCI-H661 | 0.769 | 0.738 | 0.661 | 0.605 | 0.617 |  |  |  |  |  | 0.636 | 0.56 | 0.375 | 0.424 | 0.397 | 0.646 | 0.564 | 0.525 | 0.503 | 0.531
NCI-H1563 |  |  |  |  |  |  |  |  |  |  | 1 | 0.956 | 1.02 | 0.891 | 0.879 |  |  |  |  | 
NCI-H1648 | 0.868 | 0.757 | 0.572 | 0.533 | 0.456 | 0.625 | 0.535 | 0.681 | 0.551 | 0.341 |  |  |  |  |  | 0.603 | 0.48 | 0.608 | 0.51 | 0.338
NCI-H1650 | 0.747 | 0.505 | 0.358 | 0.321 | 0.416 |  |  |  |  |  | 0.687 | 0.643 | 0.486 | 0.376 | 0.211 | 0.307 | 0.298 | 0.309 | 0.357 | 0.304
NCI-H1703 | 0.427 | 0.266 | 0.16 | 0.176 | 0.17 | 0.139 | 0.111 | 0.125 | 0.0872 | 0.14 | 0.78 | 0.706 | 0.253 | 0.319 | 0.417 |  |  |  |  | 
NCI-H2009 | 0.729 | 0.714 | 0.585 | 0.558 | 0.469 |  |  |  |  |  | 0.99 | 0.707 | 0.708 | 0.602 | 0.326 | 0.382 | 0.378 | 0.362 | 0.357 | 0.323
NCI-H2023 | 0.489 | 0.36 | 0.373 | 0.298 | 0.343 |  |  |  |  |  | 1.01 | 0.544 | 0.348 | 0.357 | 0.105 | 0.219 | 0.2 | 0.215 | 0.176 | 0.165
NCI-H2228 | 0.84 | 0.523 | 0.471 | 0.386 | 0.478 |  |  |  |  |  | 1.02 | 0.705 | 0.782 | 0.444 | 0.315 |  |  |  |  | 
NCI-H2342 | 0.536 | 0.463 | 0.425 | 0.371 | 0.396 | 0.509 | 0.506 | 0.36 | 0.449 | 0.39 |  |  |  |  |  | 0.778 | 0.782 | 0.683 | 0.555 | 0.557
SK-LU-1 | 0.527 | 0.419 | 0.525 | 0.395 | 0.292 |  |  |  |  |  | 0.725 | 0.75 | 0.857 | 0.388 | 0.367 | 0.728 | 0.627 | 0.706 | 0.594 | 0.59
SK-MES-1 | 0.733 | 0.612 | 0.783 | 0.622 | 0.459 |  |  |  |  |  | 0.466 | 0.455 | 0.481 | 0.411 | 0.386 | 0.465 | 0.336 | 0.35 | 0.421 | 0.33
SW 900 | 0.508 | 0.545 | 0.494 | 0.406 | 0.381 | 0.464 | 0.372 | 0.331 | 0.292 | 0.259 |  |  |  |  |  | 0.387 | 0.39 | 0.294 | 0.368 | 0.402
SW 1573 | 0.428 | 0.305 | 0.307 | 0.233 | 0.27 |  |  |  |  |  | 1.08 | 1.13 | 0.669 | 0.648 | 0.243 | 0.6 | 0.411 | 0.322 | 0.33 | 0.268
UMC-11 | 0.432 | 0.356 | 0.357 | 0.346 | 0.339 |  |  |  |  |  | 0.84 | 0.605 | 0.595 | 0.475 | 0.281 | 0.569 | 0.53 | 0.524 | 0.322 | 0.405
